Experimental data from ChEMBL document CHEMBL5537197, “Discovery of Novel Coumarin-quinolinium Derivatives as Pan-KRAS Translation Inhibitors by Targeting 5'-UTR RNA G-Quadruplexes” (J Med Chem, 2024).
Active and inactive are the calls of the source. No cut-off for these calls is given here.

Experiments:
MIA PaCa-2 [1] = assay: Cytotoxicity against human MIA PaCa-2 cells harboring KRAS G12C mutant assessed as cell growth inhibition incubated for 24 hrs by MTT assay; type: functional, cell-based; settings: MIA PaCa-2, 24 h
PANC-1 = assay: Cytotoxicity against human PANC-1 cells harboring KRAS G12D mutant assessed as cell growth inhibition incubated for 24 hrs by MTT assay; type: functional, cell-based; settings: PANC-1, 24 h
[2] = Cytotoxicity against human PANC-1 cells […] assessed as cell growth inhibition incubated for 24 hrs by MTT assay; type: functional, cell-based; settings: PANC-1, 24 h
NCM460 = assay: Cytotoxicity against human NCM460 cells harboring wild-type KRAS assessed as cell growth inhibition incubated for 24 hrs by MTT assay; type: functional, cell-based; settings: NCM460, 24 h
MIA PaCa-2 [3] = assay: In vivo inhibition of KRAS in human MIA PaCa-2 cells xenografted in BALB/C-nu/nu mouse model at 2.5 mg/kg,ip everyday for 18 days by IHC analysis; type: functional, organism-based; settings: time 18.0 day
[4] = target: GTPase KRas (Homo sapiens) (UniProt P01116); assay: Inhibition of KRAS in human MIA PaCa-2 cells at 2.5 uM incubated for 24 hrs by Western blot analysis; type: cell-based
GTPase KRas (Homo sapiens), sequence (P01116 whole entry, looked up): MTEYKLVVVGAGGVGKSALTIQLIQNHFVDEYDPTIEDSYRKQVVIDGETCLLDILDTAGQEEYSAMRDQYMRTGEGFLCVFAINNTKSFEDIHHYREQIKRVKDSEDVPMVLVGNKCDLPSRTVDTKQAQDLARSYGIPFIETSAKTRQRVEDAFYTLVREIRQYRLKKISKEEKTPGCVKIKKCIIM

[5] = target: GTPase KRas (Homo sapiens) (UniProt P01116); assay: Inhibition of KRAS in human PANC-1 cells at 2.5 uM incubated for 24 hrs by Western blot analysis; type: cell-based
[6] = target: GTPase KRas (Homo sapiens) (UniProt P01116); assay: Inhibition of KRAS in human MIA PaCa-2 cells at >5 uM incubated for 24 hrs by Western blot analysis; type: cell-based
[7] = target: GTPase KRas (Homo sapiens) (UniProt P01116); assay: Inhibition of KRAS in human PANC-1 cells at >5 uM incubated for 24 hrs by Western blot analysis; type: cell-based
HPAF-II = assay: Cytotoxicity against human HPAF-II cells harboring KRAS G12D mutant assessed as cell growth inhibition incubated for 24 hrs by MTT assay; type: functional, cell-based
SW-620 = assay: Cytotoxicity against human SW620 cells harboring KRAS G12V mutant assessed as cell growth inhibition incubated for 24 hrs by MTT assay; type: functional, cell-based; settings: SW-620, 24 h
HCT-116 = assay: Cytotoxicity against human HCT-116 cells harboring KRAS G13D mutant assessed as cell growth inhibition incubated for 24 hrs by MTT assay; type: functional, cell-based; settings: HCT-116, 24 h
NCI-H358 = assay: Cytotoxicity against human NCI-H358 cells harboring KRAS G12C mutant assessed as cell growth inhibition incubated for 24 hrs by MTT assay; type: functional, cell-based; settings: NCI-H358, 24 h
U-87 MG = assay: Cytotoxicity against human U-87 MG cells harboring wild-type KRAS assessed as cell growth inhibition incubated for 24 hrs by MTT assay; type: functional, cell-based, U-87MG ATCC
[8] = Cytotoxicity against human LX2 cells harboring wild-type KRAS assessed as cell growth inhibition incubated for 24 hrs by MTT assay; type: toxicity, cell-based, LX-2
[9] = Cytotoxicity against human HFL1 cells harboring wild-type KRAS assessed as cell growth inhibition incubated for 24 hrs by MTT assay; type: toxicity, cell-based

inhibition [4] | inhibition [5] | inhibition [6] | inhibition [7] | SMILES | IC50 (MIA PaCa-2 [1]) | IC50 (PANC-1) | IC50 [2] | IC50 (NCM460) | Activity (MIA PaCa-2 [3]) | IC50 (HPAF-II) | IC50 (SW-620) | IC50 (HCT-116) | IC50 (NCI-H358) | IC50 (U-87 MG) | IC50 at 24 h [8] | IC50 at 24 h [9]
 |  |  |  | C=CC(=O)N1CCN(c2nc(=O)n(-c3c(C)ccnc3C(C)C)c3nc(-c4c(O)cccc4F)c(F)cc23)[C@@H](C)C1 [SOTORASIB] | > 40 µM | > 40 µM | > 40 µM | > 40 µM | inactive |  |  |  |  |  |  | 
Active | Active |  |  | CCN(CC)c1ccc2cc(/C=C/c3ccc4cc(F)c(NCCN5CCCCC5)cc4[n+]3C)c(=O)oc2c1 | 43 µM | 5.8 µM | > 40 µM | > 40 µM |  |  |  |  |  |  |  | 
 |  | Active | Active | CCN(CC)c1ccc2cc(/C=C/c3ccc4cc(F)c(N5CCN(C)CC5)cc4[n+]3C)c(=O)oc2c1 | 10.8 µM | 14.7 µM | > 40 µM | > 40 µM |  | 32.1 µM | 18.6 µM | 19.1 µM | 11.9 µM | > 40 µM | > 40 µM | > 40 µM
Active | Active |  |  | CCN(CC)c1ccc2cc(/C=C/c3ccc4cc(F)c(NCCCN5CCOCC5)cc4[n+]3C)c(=O)oc2c1 | 4.2 µM | 6 µM | > 40 µM | > 40 µM |  |  |  |  |  |  |  | 
Active | Active |  |  | CCN(CC)c1ccc2cc(/C=C/c3ccc4cc(F)c(NCCCN5CCCC5)cc4[n+]3C)c(=O)oc2c1 | 7.8 µM | 11.8 µM | > 40 µM | > 40 µM |  |  |  |  |  |  |  | 
Active | Active |  |  | CCCCN(CCCC)CCCn1cc(CNc2cc3c(cc2F)c(N2CCN(C)CC2)cc(/C=C/c2cc4ccc(N(CC)CC)cc4oc2=O)[n+]3C)nn1 | 5.9 µM | 8.8 µM | > 40 µM | > 40 µM |  |  |  |  |  |  |  | 
Active | Active |  |  | CCN(CC)c1ccc2cc(/C=C/c3ccc4cc(F)c(NCCCN(C)C)cc4[n+]3C)c(=O)oc2c1 | 8.6 µM | 9 µM | > 40 µM | > 40 µM |  |  |  |  |  |  |  | 
